19 compounds from patent US9918990B2, “Substituted pyrrolo[2,3-c]pyridines and pyrazolo[3,4-c]pyridines as BET protein inhibitors” (Incyte Corporation, priority 2013, dated 2018) can be followed below.

Each structure is given as a SMILES string.

In experiment [1] the target is BRD4-BD1 (Homo sapiens (Human), UniProt O60885). Kind of experiment: BRD4 AlphaScreen assay, BRD4-BD1. It counts as binding. The note with it: H4Ac4 peptide, 75 min, room temperature, read-out: BRD4 BD-1 enzyme IC50. In a few lines:
(§1)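 AlphaScreen read after 75 min dark incubation at room temperature, inhibitors serially diluted in DMSO and added before other components. IC50 from fit of percent control activity versus log inhibitor concentration.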

For experiment [2], the target named is BRD4-BD2 (Homo sapiens (Human), UniProt O60885). Kind of experiment: BRD4 AlphaScreen assay, BRD4-BD2. It counts as binding. The note with it: H4Ac4 peptide, 75 min, room temperature, read-out: BRD4 BD-2 enzyme IC50. In a few lines:
as §1

The test system of experiment [3] is KMS.12.BM cells. In words: KMS.12.BM cell viability assay (Cell Titer-GLO, ATP quantitation). The conditions noted are these: Homo sapiens, 72 h, 3 days, concentration required for 50% cell death, read-out: KMS cellular IC50. It counts as cell-based. In a few lines:
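Human myeloma KMS.12.BM cells, 5000 cells/well in RPMI with 10% FBS, were exposed to a compound concentration range for 3 days. Viability was read by Cell Titer-GLO ATP luminescence relative to untreated cells; IC50 is the concentration giving 50% cell death.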

In experiment [4] the test system is C-myc. In words: KMS.12.BM C-myc ELISA assay. It counts as cell-based. The note with it: Homo sapiens; KMS.12.BM cells, 2 hours, concentration required for 50% C-myc inhibition. In a few lines: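 Human myeloma KMS.12.BM cells in RPMI/10% FBS were exposed to a compound concentration range for 2 h, then lysed with protease inhibitors. C-myc in clarified lysates was measured by ELISA. IC50 is the concentration giving 50% C-myc inhibition relative to untreated cells.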

In the case of `CC(O)c1cc(-c2cn(C)c(=O)c3[nH]ncc23)c(Oc2ccc(F)cc2F)c2ncn(C)c12` (stereo not shown) [Example 78, 4-[4-(2,4-Difluorophenoxy)-7-(1-hydroxyethyl)-1-methyl-1H-benzimidazol-5-yl]-6-methyl-1,6-dihydro-7H-pyrazolo[3,4-c]pyridin-7-one], the IC50 is less than 100 nM in experiment [1], less than 100 nM in experiment [2], not above 1000 nM in experiment [3] and not above 1000 nM in experiment [4].
With `Cn1cc(-c2ccc3c([nH]c(=O)n3C)c2Oc2ccc(Cl)cc2)c2cc[nH]c2c1=O` [Example 86, 4-(4-Chlorophenoxy)-1-methyl-5-(6-methyl-7-oxo-6,7-dihydro-1H-pyrrolo[2,3-c]pyridin-4-yl)-1,3-dihydro-2H-benzimidazol-2-one], the IC50 is less than 100 nM in experiment [1], less than 100 nM in experiment [2], not above 1000 nM in experiment [3] and not above 1000 nM in experiment [4].
On to `Cn1cc(-c2ccc3c([nH]c(=O)n3C)c2Oc2cccc(Cl)c2)c2cc[nH]c2c1=O` [Example 87, 4-(3-Chlorophenoxy)-1-methyl-5-(6-methyl-7-oxo-6,7-dihydro-1H-pyrrolo[2,3-c]pyridin-4-yl)-1,3-dihydro-2H-benzimidazol-2-one], for which the IC50 in experiment [1] is less than 100 nM; in experiment [2], less than 100 nM; in experiment [3] it was not above 1000 nM; in experiment [4] it was not above 1000 nM.
Consider `Cn1cc(-c2ccc3c([nH]c(=O)n3C)c2OCC2CCCCC2)c2cc[nH]c2c1=O` [Example 88, 4-(Cyclohexylmethoxy)-1-methyl-5-(6-methyl-7-oxo-6,7-dihydro-1H-pyrrolo[2,3-c]pyridin-4-yl)-1,3-dihydro-2H-benzimidazol-2-one], for which the 50% inhibitory concentration (IC50) was less than 100 nM in experiment [1], less than 100 nM in experiment [2], not above 1000 nM in experiment [3] and not above 1000 nM in experiment [4].
As for `Cn1cc(-c2ccc3c([nH]c(=O)n3C)c2OC2CCC2)c2cc[nH]c2c1=O` [Example 89, 4-(Cyclobutyloxy)-1-methyl-5-(6-methyl-7-oxo-6,7-dihydro-1H-pyrrolo[2,3-c]pyridin-4-yl)-1,3-dihydro-2H-benzimidazol-2-one], the half-inhibitory concentration (IC50) is less than 100 nM in experiment [1], less than 100 nM in experiment [2], not above 1000 nM in experiment [3] and not above 1000 nM in experiment [4].
`Cn1cc(-c2ccc3c([nH]c(=O)n3C)c2OC2CCCCC2)c2cc[nH]c2c1=O` [Example 90, 4-(Cyclohexyloxy)-1-methyl-5-(6-methyl-7-oxo-6,7-dihydro-1H-pyrrolo[2,3-c]pyridin-4-yl)-1,3-dihydro-2H-benzimidazol-2-one]: the IC50 in experiment [1] was less than 100 nM; in experiment [2], less than 100 nM; in experiment [3] it was not above 1000 nM; in experiment [4], not above 1000 nM.
In the case of `Cn1cc(-c2ccc3c([nH]c(=O)n3C)c2OC2CCCOC2)c2cc[nH]c2c1=O` (stereo not shown) [Example 91, 1-Methyl-5-(6-methyl-7-oxo-6,7-dihydro-1H-pyrrolo[2,3-c]pyridin-4-yl)-4-(tetrahydro-2H-pyran-3-yloxy)-1,3-dihydro-2H-benzimidazol-2-one], the IC50 in experiment [1] was less than 100 nM; in experiment [2], less than 100 nM; in experiment [3] it was not above 1000 nM; in experiment [4] it was not above 1000 nM.
On to `Cn1cc(-c2ccc3c([nH]c(=O)n3C)c2OCC2CCCC2)c2cc[nH]c2c1=O` [Example 92, 4-(Cyclopentylmethoxy)-1-methyl-5-(6-methyl-7-oxo-6,7-dihydro-1H-pyrrolo[2,3-c]pyridin-4-yl)-1,3-dihydro-2H-benzimidazol-2-one], for which the IC50 in experiment [1] was less than 100 nM; in experiment [2] it was less than 100 nM; in experiment [3] it was not above 1000 nM; in experiment [4], not above 1000 nM.
With `Cn1cc(-c2ccc3c([nH]c(=O)n3C)c2OC2CCCC2)c2cc[nH]c2c1=O` [Example 93, 4-(Cyclopentyloxy)-1-methyl-5-(6-methyl-7-oxo-6,7-dihydro-1H-pyrrolo[2,3-c]pyridin-4-yl)-1,3-dihydro-2H-benzimidazol-2-one], the IC50 in experiment [1] is less than 100 nM; in experiment [2], less than 100 nM; in experiment [3] it was not above 1000 nM; in experiment [4] it was not above 1000 nM.
As to `Cn1cc(-c2ccc3c(c2Oc2ccccc2)NC(=O)CO3)c2cc[nH]c2c1=O` [Example 94, 6-(6-Methyl-7-oxo-6,7-dihydro-1H-pyrrolo[2,3-c]pyridin-4-yl)-5-phenoxy-2H-1,4-benzoxazin-3(4H)-one], the IC50 in experiment [1] was less than 100 nM; in experiment [2], less than 100 nM; in experiment [3], not above 1000 nM; in experiment [4], not above 1000 nM.
For `Cn1cc(-c2ccc3ocnc3c2Oc2ccccc2)c2cc[nH]c2c1=O` [Example 96, 6-Methyl-4-(4-phenoxy-1,3-benzoxazol-5-yl)-1,6-dihydro-7H-pyrrolo[2,3-c]pyridin-7-one], the IC50 in experiment [1] was less than 100 nM; in experiment [2] it was less than 100 nM; in experiment [3] it was not above 1000 nM; in experiment [4], not above 1000 nM.
Consider `Cn1cc(-c2ccc3oc(CN)nc3c2Oc2ccccc2)c2cc[nH]c2c1=O` [Example 103, 4-[2-(Aminomethyl)-4-phenoxy-1,3-benzoxazol-5-yl]-6-methyl-1,6-dihydro-7H-pyrrolo[2,3-c]pyridin-7-one], for which the IC50 in experiment [1] was less than 100 nM; in experiment [2], less than 100 nM; in experiment [3] it was not above 1000 nM; in experiment [4], not above 1000 nM.
As to `CC(=O)NCc1nc2c(Oc3ccccc3)c(-c3cn(C)c(=O)c4[nH]ccc34)ccc2o1` [Example 104, N-{[5-(6-Methyl-7-oxo-6,7-dihydro-1H-pyrrolo[2,3-c]pyridin-4-yl)-4-phenoxy-1,3-benzoxazol-2-yl]methyl}acetamide], the IC50 in experiment [1] is less than 100 nM; in experiment [2], less than 100 nM; in experiment [3] it was not above 1000 nM; in experiment [4] it was not above 1000 nM.
Consider `Cn1cc(-c2ccc3oc(CNS(C)(=O)=O)nc3c2Oc2ccccc2)c2cc[nH]c2c1=O` [Example 105, N-{[5-(6-Methyl-7-oxo-6,7-dihydro-1H-pyrrolo[2,3-c]pyridin-4-yl)-4-phenoxy-1,3-benzoxazol-2-yl]methyl}methanesulfonamide], for which the IC50 in experiment [1] is less than 100 nM; in experiment [2], less than 100 nM; in experiment [3], not above 1000 nM; in experiment [4] it was not above 1000 nM.
On to `Cn1cc(-c2ccc3oc(CNC(=O)c4ccccc4)nc3c2Oc2ccccc2)c2cc[nH]c2c1=O` [Example 106, N-{[5-(6-methyl-7-oxo-6,7-dihydro-1H-pyrrolo[2,3-c]pyridin-4-yl)-4-phenoxy-1,3-benzoxazol-2-yl]methyl}benzamide], for which the IC50 was less than 100 nM in experiment [1], less than 100 nM in experiment [2], not above 1000 nM in experiment [3] and 1000 to 10000 nM in experiment [4].
For the compound `Cn1cc(-c2ccc3oc(CNC(=O)Cc4ccccc4)nc3c2Oc2ccccc2)c2cc[nH]c2c1=O` [Example 107, N-{[5-(6-Methyl-7-oxo-6,7-dihydro-1H-pyrrolo[2,3-c]pyridin-4-yl)-4-phenoxy-1,3-benzoxazol-2-yl]methyl}-2-phenylacetamide], the IC50 in experiment [1] is less than 100 nM; in experiment [2] it was less than 100 nM; in experiment [3], not above 1000 nM; in experiment [4], not above 1000 nM.
For the compound `Cn1cc(-c2ccc3oc(CNC(=O)C4CC4)nc3c2Oc2ccccc2)c2cc[nH]c2c1=O` [Example 108, N-{[5-(6-Methyl-7-oxo-6,7-dihydro-1H-pyrrolo[2,3-c]pyridin-4-yl)-4-phenoxy-1,3-benzoxazol-2-yl]methyl}cyclopropanecarboxamide], the IC50 is less than 100 nM in experiment [1], less than 100 nM in experiment [2], not above 1000 nM in experiment [3] and not above 1000 nM in experiment [4].
As to `Cn1cc(-c2ccc3oc(CNC(=O)CC4CCCC4)nc3c2Oc2ccccc2)c2cc[nH]c2c1=O` [Example 109, 2-Cyclopentyl-N-{[5-(6-methyl-7-oxo-6,7-dihydro-1H-pyrrolo[2,3-c]pyridin-4-yl)-4-phenoxy-1,3-benzoxazol-2-yl]methyl}acetamide], the IC50 in experiment [1] was less than 100 nM; in experiment [2], less than 100 nM; in experiment [3], not above 1000 nM; in experiment [4], 1000 to 10000 nM.
In the case of `Cn1cc(-c2ccc3c(ncn3CCC#N)c2Oc2ccccc2)c2cc[nH]c2c1=O` [Example 113, 3-[5-(6-Methyl-7-oxo-6,7-dihydro-1H-pyrrolo[2,3-c]pyridin-4-yl)-4-phenoxy-1H-benzimidazol-1-yl]propanenitrile], the IC50 in experiment [1] was less than 100 nM; in experiment [2], less than 100 nM; in experiment [3], not above 1000 nM; in experiment [4], not above 1000 nM.
